Key:
Assay type in all cases: in vitro ADME
[1] = In vitro rate of glycoside prodrug hydrolysis in feces supernatant, mouse; settings: 100 µM, 37° C., pH 6.5, 24 hr
Protocol: (§1) In vitro rate of glycoside prodrugs hydrolysis. The metabolic stability of prodrug candidates to release the parent PDE4 inhibitor could be assessed in vitro according, but not restricted, to the following protocol: feces were collected overnight on a mixture of dry and wet ice in a metabolic cage. Ten volumes (v/w; 30 mL) of 100 mM phosphate buffer (pH 6.5) were added to 3 g of freshly collected rodent feces. The mixture was homogenized with a Stomacher Circulator 400 (2 × 1 min-cycles at 225 rpm). The mixture was transferred to a 50 mL tubes, centrifuged at 10 000xg for 10 min (4° C.) and the supernatant was passed through a 0.45 µm-filter. In a 96 deep-well plate, 198 µL of feces supernatant were aliquoted in 2 wells per compound. Each compound, including positive control, was tested in duplicate. Then 2 µL of 10 mM stock solution of each test compound were spiked in individual wells (duplicate) at a final concentration of 100 µM and samples were sealed and mixed 30 sec at 1000 rpm using a vortexer. Samples were incubated at 37° C. for the desired time in the Thermomixer with constant agitation (300 rpm). At desired time-point, 25 µL of reaction mixture was added to 225 µL of ice-cold quenching solution (acetonitrile + 0.1% (v/v) formic acid) to stop the bacterial enzymatic activity. The quenched incubates were mixed and centrifuged 10 min at 21 000xg at 4° C. A real t0 (no metabolism, 100% total recovery of unchanged prodrug) was generated by adding 22.5 µL of feces supernatant to 225 µL of ice-cold quenching solution (acetonitrile + 0.1% (v/v) formic acid). Then 2.5 µL of 1 mM solution of each test compounds was added, sealed, mixed thoroughly and centrifuged 10 min at 21 000xg at 4° C. All samples, including analytical standards, were analyzed by LC-MS/MS to measure the concentration of the parent PDE4 inhibitor released and the concentration of the corresponding prodrug remaining. A set criteria of 100% recovery is targeted where the summation of the % of prodrug remaining and the % of parent PDE4 inhibitor released should be 100% with an experimental error tolerance of ± 20%. When prodrugs represented by Formula (I) were incubated 24 hours under the conditions described above using mouse, rat and dog feces, the glycoside prodrugs were hydrolyzed to release the corresponding parent PDE4 inhibitor III (Table 3). As a negative control, when compound 4, 10 and 21 were incubated 24 hours under the conditions described above but in the absence of enzyme activities, using mouse feces extract supernatant inactivated by boiling the supernatant 10 minutes, 100% of the prodrugs were recovered unchanged.

[2] = Bidirectional Caco-2 permeability assay; settings: human; Caco-2, 10 µM, apical pH 6.0 / basolateral pH 7.4, average of 2 determinations
Protocol: In vitro glycoside prodrug permeability assessment. The permeability of the glycoside prodrugs were measured using the bidirectional Caco-2 assay. Caco-2 cells were seeded onto permeable polycarbonate supports in 12-well Costar Transwell plates and allowed to grow and differentiate for 21-25 days. On day 24, culture medium (DMEM supplemented with 10% FBS, 1% non-essential amino acids and penicillin/streptomycin) was removed from both sides of the transwell inserts and cells were rinsed with warm HBSS. […] The buffer in the donor chamber (apical side for A-to-B assay, basolateral side for B-to-A assay) was removed and replaced with the working solution (10 µM test article in transport buffer). The plates were then placed at 37° C. under light agitation. At designated time points (30, 60 and 90 min); an aliquot of transport buffer from the receiver chamber was removed and replenished with fresh transport buffer. Samples were quenched with ice-cold CH3CN containing internal standard and then centrifuged to precipitate the protein. Resulting supernatants were further diluted with 50/50 ACN/H2O (H2O only for Atenolol) and submitted for LC/MS/MS analysis. […] Atenolol and propranolol were tested as low and […] permeability references. […] The apparent permeability (Papp, measured in cm/s) of a compound is determined according to the following formula: […]
Where dQ/dt is the net rate of appearance in the receiver compartment, A is the area of the Transwell measured in cm^2 (1.12 cm^2), C0 is the initial concentration of compound added to the donor chamber and 60 is the conversion factor for the minute to second.

[3] = In vitro rate of glycoside prodrug hydrolysis in feces supernatant, rat; settings: 100 µM, 37° C., pH 6.5, 24 hr
Protocol: as §1

β-D-glucuronidase = test: Positive control: incubation with β-D-glucuronidase in phosphate buffer; settings: β-D-glucuronidase 50U/mL, phosphate buffer pH 6.5, 37° C., 24 hours
[4] = Negative control: incubation in mouse feces extract supernatant inactivated by boiling; settings: 24 hours, mouse feces supernatant boiled 10 minutes (no enzyme activities)
Protocol: as §1, with “A set criteria of 100% recovery is targeted where the summation of the % of prodrug remaining and the % of parent PDE4 inhibitor released should be 100% with an experimental error tolerance of ± 20%. When prodrugs represented by Formula (I) were incubated 24 hours under the conditions described above using mouse, rat and dog feces, the glycoside prodrugs were hydrolyzed to release the corresponding parent PDE4 inhibitor III (Table 3). As a negative control, when compound 4, 10 and 21 were incubated 24 hours under the conditions described above but in the absence of enzyme activities, using mouse feces extract supernatant inactivated by boiling the supernatant 10 minutes, 100% of the prodrugs were recovered unchanged.” left out

| SMILES | Papp A→B at 10 µM [2] [×10⁻⁶ cm/s] | prodrug recovered unchanged [4] [%] | Prodrug Remaining @ 24 hr (%) [1] [%] | Prodrug Remaining @ 24 hr (%) [3] [%] | prodrug recovered unchanged (β-D-glucuronidase) [%] |
| --- | --- | --- | --- | --- | --- |
| CC(=O)OC[C@H]1O[C@@H](Oc2ccc(C[C@H](c3ccc(C(C)(C)O)nc3)c3ccc(OC(F)F)c(OC4CC4)c3)cn2)[C@H](O)[C@@H](OC(C)=O)[C@@H]1OC(C)=O [Compound 5, (2R,3R,4R,5R,6S)-2-(acetoxymethyl)-6-((5-((S)-2-(3-cyclopropoxy-4-(difluoromethoxy)phenyl)-2-(6-(2-hydroxypropan-2-yl)pyridin-3-yl)ethyl)pyridin-2-yl)oxy)-5-hydroxytetrahydro-2H-pyran-3,4-diyl diacetate] | 0.9 |  | 0.0 | 0.0 |  |
| CC(C)(O)c1ccc([C@@H](Cc2ccc(O[C@@H]3O[C@H](C(=O)[O-])[C@@H](O)[C@H](O)[C@H]3O)nc2)c2ccc(OC(F)F)c(OC3CC3)c2)cn1.[Li+] [Compound 9, lithium (2S,3S,4S,5R,6S)-6-((5-((S)-2-(3-cyclopropoxy-4-(difluoromethoxy)phenyl)-2-(6-(2-hydroxypropan-2-yl)pyridin-3-yl)ethyl)pyridin-2-yl)oxy)-3,4,5-trihydroxytetrahydro-2H-pyran-2-carboxylate] |  |  | 3.3 | 4.2 | 2 |
| CC(C)(O)c1ccc([C@@H](Cc2ccc(O[C@@H]3O[C@H](CO)[C@@H](O)[C@H](O)[C@H]3O)nc2)c2ccc(OC(F)F)c(OC3CC3)c2)cn1 [Compound 4, (2S,3R,4S,5S,6R)-2-((5-((S)-2-(3-cyclopropoxy-4-(difluoromethoxy)phenyl)-2-(6-(2-hydroxypropan-2-yl)pyridin-3-yl)ethyl)pyridin-2-yl)oxy)-6-(hydroxymethyl)tetrahydro-2H-pyran-3,4,5-triol] | 0.08 | 100 | 0.1 | 0.0 |  |
| OC[C@H]1O[C@@H](Oc2ccc(C[C@@H](c3ccc(OC(F)F)c(OC4CC4)c3)c3cnc(C(O)(C(F)(F)F)C(F)(F)F)s3)cn2)[C@H](O)[C@@H](O)[C@@H]1O [Compound 2, (2S,3R,4S,5S,6R)-2-((5-((S)-2-(3-cyclopropoxy-4-(difluoromethoxy)phenyl)-2-(2-(1,1,1,3,3,3-hexafluoro-2-hydroxypropan-2-yl)thiazol-5-yl)ethyl)pyridin-2-yl)oxy)-6-(hydroxymethyl)tetrahydro-2 H-pyran-3,4,5-triol] | 0.07 |  |  | 0.5 |  |

Second part, led by results:

| Papp A→B at 10 µM [2] [×10⁻⁶ cm/s] | prodrug recovered unchanged [4] [%] | SMILES | Prodrug Remaining @ 24 hr (%) [1] [%] | Prodrug Remaining @ 24 hr (%) [3] [%] | prodrug recovered unchanged (β-D-glucuronidase) [%] |
| --- | --- | --- | --- | --- | --- |
| 2.8 |  | C[N+](C)(C)[C@H]1[C@H](Oc2ccc(C[C@@H](c3ccc(OC(F)F)c(OC4CC4)c3)c3cnc(C(O)(C(F)(F)F)C(F)(F)F)s3)cn2)O[C@H](CO)[C@@H](O)[C@@H]1O.[I-] [Compound 26, (2S,3R,4R,5S,6R)-2-((5-((S)-2-(3-cyclopropoxy-4-(difluoromethoxy)phenyl)-2-(2-(1,1,1,3,3,3-hexafluoro-2-hydroxypropan-2-yl)thiazol-5-yl)ethyl)pyridin-2-yl)oxy)-4,5-dihydroxy-6-(hydroxymethyl)-N,N,N-trimethyltetrahydro-2H-pyran-3-aminium iodide] | 96 |  |  |
|  | 100 | CC(C)(O)c1ccc([C@@H](Cc2ccc(OC3O[C@H](CO)[C@@H](O)[C@H](O)[C@H]3N)nc2)c2ccc(OC(F)F)c(OC3CC3)c2)cn1 (mixture of isomers) [Compound 21, (2R,3S,4R,5R)-5-amino-6-((5-((S)-2-(3-cyclopropoxy-4-(difluoromethoxy)phenyl)-2-(6-(2-hydroxypropan-2-yl)pyridin-3-yl)ethyl)pyridin-2-yl)oxy)-2-(hydroxymethyl)tetrahydro-2H-pyran-3,4-diol] |  |  |  |

Source: US20230250123A1, “GUT MICROBIOTA BIOACTIVATED PDE4 INHIBITOR PRECURSORS” (Giiant Pharma Inc., priority 2020, published 2023)
